Data published in patent US20230233569A1 (Revolution Medicines, Inc., priority 2020, published 2023).
Where two headings read alike, the source gives them in different places.

Key:
Assay in all cases: Ras-Raf disruption / FRET / MOA assay (BRAF RBD)
Type in all cases: biochemical
KRAS G13D = KRAS G13D (Homo sapiens, UniProt P01116+P62937, G13D); conditions: with Cyclophilin A
In short: (§1)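 Compound-induced Ras–Cyclophilin A ternary complex disrupting BRAF RBD binding, read as IC50 from reduced TR-FRET ratio relative to DMSO. Final: Ras-GMPPNP 12.5 nM, BRAF RBD 50 nM, Cyclophilin A 25 μM, top compound 30 μM (3-fold, 10 points); 3 h at 25 °C, then 1.5 h with detection antibodies.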

KRAS G13C = KRAS G13C (Homo sapiens, UniProt P01116+P62937, G13C); conditions: with Cyclophilin A
Chain of KRAS G13C (P01116 1-169 isoform P01116-2 G13C limits assumed): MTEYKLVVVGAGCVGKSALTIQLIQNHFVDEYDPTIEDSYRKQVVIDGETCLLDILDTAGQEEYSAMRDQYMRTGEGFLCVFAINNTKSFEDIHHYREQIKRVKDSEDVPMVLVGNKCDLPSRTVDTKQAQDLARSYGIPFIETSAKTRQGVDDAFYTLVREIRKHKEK
Chain of KRAS G13C (P62937 whole entry): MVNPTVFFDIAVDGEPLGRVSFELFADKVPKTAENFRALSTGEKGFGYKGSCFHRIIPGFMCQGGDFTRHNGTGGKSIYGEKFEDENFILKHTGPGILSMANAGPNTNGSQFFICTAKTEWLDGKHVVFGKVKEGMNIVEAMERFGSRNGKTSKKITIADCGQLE
In short: as §1

KRAS G12D = KRAS G12D (Homo sapiens, UniProt P01116+P62937, G12D); conditions: with Cyclophilin A
Chain of KRAS G12D (P01116 1-169 isoform P01116-2 G12D limits assumed): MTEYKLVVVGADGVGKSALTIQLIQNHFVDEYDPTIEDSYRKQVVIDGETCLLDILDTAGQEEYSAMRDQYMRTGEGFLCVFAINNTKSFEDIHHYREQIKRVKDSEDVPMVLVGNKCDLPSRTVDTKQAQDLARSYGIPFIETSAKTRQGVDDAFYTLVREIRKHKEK
Chain of KRAS G12D (P62937 whole entry): as the sequence (P62937 whole entry) above
In short: as §1

KRAS G12S = KRAS G12S (Homo sapiens, UniProt P01116+P62937, G12S); conditions: with Cyclophilin A
Chain of KRAS G12S (P01116 1-169 isoform P01116-2 G12S limits assumed): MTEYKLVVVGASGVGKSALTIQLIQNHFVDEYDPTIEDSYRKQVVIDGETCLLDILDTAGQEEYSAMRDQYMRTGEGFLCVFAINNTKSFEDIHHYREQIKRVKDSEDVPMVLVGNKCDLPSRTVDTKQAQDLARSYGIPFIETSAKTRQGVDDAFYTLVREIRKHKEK
Chain of KRAS G12S (P62937 whole entry): as the sequence (P62937 whole entry) above
In short: as §1

NRAS WT = NRAS WT (Homo sapiens, UniProt P01111+P62937)
Chain of NRAS WT (P01111 whole entry): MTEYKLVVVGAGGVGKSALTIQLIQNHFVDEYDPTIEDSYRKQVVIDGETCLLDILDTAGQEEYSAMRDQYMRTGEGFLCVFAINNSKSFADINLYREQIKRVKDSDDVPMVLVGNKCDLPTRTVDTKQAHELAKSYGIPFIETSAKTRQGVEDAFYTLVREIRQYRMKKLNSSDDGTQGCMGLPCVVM
Chain of NRAS WT (P62937 whole entry): as the sequence (P62937 whole entry) above
In short: as §1

NRAS Q61K = NRAS Q61K (Homo sapiens, UniProt P01111+P62937, Q61K)
Chain of NRAS Q61K (P01111 whole entry Q61K): as the sequence (P01111 whole entry) above, with Q61K counted along it
Chain of NRAS Q61K (P62937 whole entry): as the sequence (P62937 whole entry) above
In short: as §1

NRAS Q61R = NRAS Q61R (Homo sapiens, UniProt P01111+P62937, Q61R)
Chain of NRAS Q61R (P01111 whole entry Q61R): as the sequence (P01111 whole entry) above, with Q61R counted along it
Chain of NRAS Q61R (P62937 whole entry): as the sequence (P62937 whole entry) above
In short: as §1

KRAS G12V = KRAS G12V (Homo sapiens, UniProt P01116+P62937, G12V); conditions: with Cyclophilin A
Chain of KRAS G12V (P01116 1-169 isoform P01116-2 G12V limits assumed): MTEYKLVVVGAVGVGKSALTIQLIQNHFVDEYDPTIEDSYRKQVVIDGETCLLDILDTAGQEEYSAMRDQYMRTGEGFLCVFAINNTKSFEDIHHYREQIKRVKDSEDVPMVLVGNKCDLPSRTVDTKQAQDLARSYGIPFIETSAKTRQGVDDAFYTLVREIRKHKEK
Chain of KRAS G12V (P62937 whole entry): as the sequence (P62937 whole entry) above
In short: as §1

NRAS G12C = NRAS G12C (Homo sapiens, UniProt P01111+P62937, G12C)
Chain of NRAS G12C (P01111 whole entry G12C): as the sequence (P01111 whole entry) above, with G12C counted along it
Chain of NRAS G12C (P62937 whole entry): as the sequence (P62937 whole entry) above
In short: as §1

KRAS Q61H = KRAS Q61H (Homo sapiens, UniProt P01116+P62937, Q61H)
Chain of KRAS Q61H (P01116 1-169 isoform P01116-2 Q61H limits assumed): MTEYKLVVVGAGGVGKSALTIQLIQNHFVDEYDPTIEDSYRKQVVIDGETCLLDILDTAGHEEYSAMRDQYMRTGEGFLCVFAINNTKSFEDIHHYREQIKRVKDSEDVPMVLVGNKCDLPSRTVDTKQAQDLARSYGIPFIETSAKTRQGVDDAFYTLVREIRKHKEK
Chain of KRAS Q61H (P62937 whole entry): as the sequence (P62937 whole entry) above
In short: as §1

KRAS WT = KRAS WT (Homo sapiens, UniProt P01116+P62937); conditions: with Cyclophilin A
Chain of KRAS WT (P01116 1-169 isoform P01116-2 limits assumed): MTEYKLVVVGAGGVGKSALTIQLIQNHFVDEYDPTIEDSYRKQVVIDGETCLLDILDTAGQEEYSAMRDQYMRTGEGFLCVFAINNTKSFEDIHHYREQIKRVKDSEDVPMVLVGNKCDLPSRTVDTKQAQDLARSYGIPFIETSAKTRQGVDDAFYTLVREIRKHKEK
Chain of KRAS WT (P62937 whole entry): as the sequence (P62937 whole entry) above
In short: as §1

KRAS G12C = KRAS G12C (Homo sapiens, UniProt P01116+P62937, G12C); conditions: with Cyclophilin A
Chain of KRAS G12C (P01116 1-169 isoform P01116-2 G12C limits assumed): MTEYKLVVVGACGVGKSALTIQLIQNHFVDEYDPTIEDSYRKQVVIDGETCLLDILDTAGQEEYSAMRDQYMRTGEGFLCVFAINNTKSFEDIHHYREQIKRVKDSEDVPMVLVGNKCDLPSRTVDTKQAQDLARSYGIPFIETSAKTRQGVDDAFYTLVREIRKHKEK
Chain of KRAS G12C (P62937 whole entry): as the sequence (P62937 whole entry) above
In short: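 TR-FRET read-out after 1.5 h with anti-His Eu-W1024 (10 nM) and anti-GST APC (50 nM), following 3 h at 25 °C of compound (top 30 μM, 3-fold, 10 points) with 25 μM Cyclophilin A, 12.5 nM GMPPNP-loaded K-Ras G12C and 50 nM BRAF RBD; IC50 reported.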

[1] = KRAS G13D FRET data IC50, Ras-Raf disruption
[2] = KRAS G13C FRET data IC50, Ras-Raf disruption
[3] = KRAS G12D FRET data IC50, Ras-Raf disruption
[4] = KRAS G12S FRET data IC50, Ras-Raf disruption
[5] = KRAS G12V FRET data IC50, Ras-Raf disruption
[6] = NRAS G12C FRET data IC50, NRAS G12C
[7] = KRAS WT FRET data IC50, Ras-Raf disruption
[8] = KRAS G12C FRET data IC50, Ras-Raf disruption
[9] = Ras-Raf disruption, read-out: KRAS G13D FRET data IC50
[10] = Ras-Raf disruption, read-out: KRAS G13C FRET data IC50
[11] = Ras-Raf disruption, read-out: KRAS G12D FRET data IC50
[12] = Ras-Raf disruption, read-out: KRAS G12S FRET data IC50
[13] = NRAS WT, read-out: NRAS WT FRET data IC50
[14] = NRAS Q61K, read-out: NRAS Q61K FRET data IC50
[15] = NRAS Q61R, read-out: NRAS Q61R FRET data IC50
[16] = Ras-Raf disruption, read-out: KRAS G12V FRET data IC50
[17] = NRAS G12C, read-out: NRAS G12C FRET data IC50
[18] = KRAS Q61H, read-out: KRAS Q61H FRET data IC50
[19] = Ras-Raf disruption, read-out: KRAS WT FRET data IC50
[20] = Ras-Raf disruption, read-out: KRAS G12C FRET data IC50

Chain of KRAS G13D (P01116 1-169 isoform P01116-2 G13D limits assumed): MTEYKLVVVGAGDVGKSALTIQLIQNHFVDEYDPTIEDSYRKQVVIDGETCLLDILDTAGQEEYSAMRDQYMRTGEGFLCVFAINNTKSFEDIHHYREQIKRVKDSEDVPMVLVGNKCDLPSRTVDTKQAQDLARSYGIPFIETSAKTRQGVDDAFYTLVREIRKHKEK
Chain of KRAS G13D (P62937 whole entry): as the sequence (P62937 whole entry) above

CCn1c(-c2cccnc2[C@H](C)OC)c2c3cc(ccc31)-c1cc(O)cc(c1)C[C@H](NC(=O)[C@H](C(C)C)N1CC[C@H](NC(=O)[C@H]3CN3)C1=O)C(=O)N1CCC[C@H](N1)C(=O)OCC(C)(C)C2 [Example 213]
IC50 (KRAS G13D; [1]): 100 to 1000 nM | IC50 (KRAS G13C; [2]): 10 to 100 nM | IC50 (KRAS G12D; [3]): 1000 to 10000 nM | IC50 (KRAS G12S; [4]): 100 to 1000 nM | IC50 (NRAS WT): 10 to 100 nM | IC50 (NRAS Q61K): 100 to 1000 nM | IC50 (NRAS Q61R): 100 to 1000 nM | IC50 (KRAS G12V; [5]): 100 to 1000 nM | IC50 (NRAS G12C; [6]): 10 to 100 nM | IC50 (KRAS Q61H): 10 to 100 nM | IC50 (KRAS WT; [7]): 10 to 100 nM | IC50 (KRAS G12C; [8]): 10 to 100 nM

CCn1c(-c2cccnc2[C@H](C)OC)c2c3cc(ccc31)-c1csc(n1)C[C@H](NC(=O)[C@H](C(C)C)N(C)C(=O)N(C)C1CN(C(=O)[C@H]3CN3)C1)C(=O)N1CCC[C@H](N1)C(=O)OCC(C)(C)C2 [Example 220]
IC50 (KRAS G13D; [9]): 100 to 1000 nM | IC50 (KRAS G13C; [10]): 100 to 1000 nM | IC50 (KRAS G12D; [11]): 1000 to 10000 nM | IC50 (KRAS G12S; [12]): 100 to 1000 nM | IC50 (NRAS WT; [13]): 100 to 1000 nM | IC50 (NRAS Q61K; [14]): 10 to 100 nM | IC50 (NRAS Q61R; [15]): 100 to 1000 nM | IC50 (KRAS G12V; [16]): 100 to 1000 nM | IC50 (NRAS G12C; [17]): 100 to 1000 nM | IC50 (KRAS Q61H; [18]): 10 to 100 nM | IC50 (KRAS WT; [19]): 100 to 1000 nM | IC50 (KRAS G12C; [20]): 10 to 100 nM

CCn1c(-c2cccnc2[C@H](C)OC)c2c3cc(ccc31)-c1cc(O)cc(c1)C[C@H](NC(=O)[C@H](C(C)C)N(C)C(=O)[C@H]1C[C@H]3CC[C@@H](C1)N3C(=O)[C@@H]1CN1)C(=O)N1CCC[C@H](N1)C(=O)OCC(C)(C)C2 (atropisomer, axis not shown) [Example 246]
IC50 (KRAS G13D; [9]): 100 to 1000 nM | IC50 (KRAS G13C; [10]): 10 to 100 nM | IC50 (KRAS G12D; [11]): 1000 to 10000 nM | IC50 (KRAS G12S; [12]): 100 to 1000 nM | IC50 (NRAS WT; [13]): 10 to 100 nM | IC50 (NRAS Q61K; [14]): 10 to 100 nM | IC50 (NRAS Q61R; [15]): 100 to 1000 nM | IC50 (KRAS G12V; [16]): 100 to 1000 nM | IC50 (NRAS G12C; [17]): 10 to 100 nM | IC50 (KRAS Q61H; [18]): < 10 nM | IC50 (KRAS WT; [19]): 10 to 100 nM | IC50 (KRAS G12C; [20]): 10 to 100 nM

CCn1c(-c2cccnc2[C@H](C)OC)c2c3cc(ccc31)-c1cc(O)cc(c1)C[C@H](NC(=O)[C@H](C(C)C)N(C)C(=O)[C@@H]1CCN(C(=O)[C@H]3CN3)C1)C(=O)N1CCC[C@H](N1)C(=O)OCC(C)(C)C2 (atropisomer, axis not shown) [Example 186]
IC50 (KRAS G13D; [9]): 10 to 100 nM | IC50 (KRAS G13C; [10]): 10 to 100 nM | IC50 (KRAS G12D; [11]): 10 to 100 nM | IC50 (KRAS G12S; [12]): 10 to 100 nM | IC50 (NRAS WT; [13]): 10 to 100 nM | IC50 (NRAS Q61K; [14]): 100 to 1000 nM | IC50 (NRAS Q61R; [15]): 100 to 1000 nM | IC50 (KRAS G12V; [16]): 10 to 100 nM | IC50 (NRAS G12C; [17]): < 10 nM | IC50 (KRAS Q61H; [18]): 10 to 100 nM | IC50 (KRAS WT; [19]): 10 to 100 nM | IC50 (KRAS G12C; [20]): < 10 nM

CCn1c(-c2cccnc2[C@H](C)OC)c2c3cc(ccc31)-c1cc(O)cc(c1)C[C@H](NC(=O)[C@H](C1CCCC1)N(C)C(=O)[C@@H](C)N(C)C(=O)[C@@H]1N[C@@H]1C1CC1)C(=O)N1CCC[C@H](N1)C(=O)OCC(C)(C)C2 [Example 327]
IC50 (KRAS G13D; [1]): > 10000 nM | IC50 (KRAS G13C; [2]): 1000 to 10000 nM | IC50 (KRAS G12D; [3]): 1000 to 10000 nM | IC50 (KRAS G12S; [4]): > 10000 nM | IC50 (NRAS WT): > 10000 nM | IC50 (NRAS Q61K): > 10000 nM | IC50 (NRAS Q61R): > 10000 nM | IC50 (KRAS G12V; [5]): > 10000 nM | IC50 (NRAS G12C; [6]): 1000 to 10000 nM | IC50 (KRAS Q61H): 1000 to 10000 nM | IC50 (KRAS WT; [7]): 1000 to 10000 nM | IC50 (KRAS G12C; [8]): 1000 to 10000 nM

CCn1c(-c2cccnc2[C@H](C)OC)c2c3cc(ccc31)-c1cc(O)cc(c1)C[C@H](NC(=O)[C@H](C(C)C)N(C)C(=O)N1CC[C@@H](N(C)C(=O)[C@@H]3CN3)C1)C(=O)N1CCC[C@H](N1)C(=O)OCC(C)(C)C2 (atropisomer, axis not shown) [Example 253]
IC50 (KRAS G13D; [9]): 100 to 1000 nM | IC50 (KRAS G13C; [10]): 10 to 100 nM | IC50 (KRAS G12D; [11]): 100 to 1000 nM | IC50 (KRAS G12S; [12]): 100 to 1000 nM | IC50 (NRAS WT; [13]): 10 to 100 nM | IC50 (NRAS Q61K; [14]): 100 to 1000 nM | IC50 (NRAS Q61R; [15]): 100 to 1000 nM | IC50 (KRAS G12V; [16]): 100 to 1000 nM | IC50 (NRAS G12C; [17]): 10 to 100 nM | IC50 (KRAS Q61H; [18]): 10 to 100 nM | IC50 (KRAS WT; [19]): 10 to 100 nM | IC50 (KRAS G12C; [20]): 10 to 100 nM
